Measured values published in patent US20260284018A1, “DUAL INHIBITORS OF DYRK1A AND 5-HT2 FOR TREATING A BRAIN DISORDER” (THE REGENTS OF THE UNIVERSITY OF CALIFORNIA, priority 2023, published 2026).

Columns and labels:
DYRK1A = biological target: T1, DYRK1A (Homo sapiens, UniProt Q13627); assay: DYRK1A inhibition (ADP-Glo assay); format: biochemical; conditions: FIG. 3
T1 construct: purchased Promega
Procedure: DYRK1A inhibition. IC50s for all compounds at DYRK1A were determined using an ADP-Glo™ assay kit (Promega) and DYRK1A enzyme system (Promega) following the manufacturer's protocol. In brief, 10 μL of DYRKtide substrate (1 mg/mL) and ATP (50 μM) in kinase reaction buffer (40 mM Tris HCl, 20 mM MgCl2, 0.1 mg/mL BSA, 50 μM DTT in DI water) was added to a solid white 96-well plate. Next, 5 μL of 5× compound solutions in kinase reaction buffer (5% DMSO) or 5% DMSO in kinase reaction buffer was added. Then 10 μL DYRK1A in kinase reaction buffer (2 ng/μL) was added and the plate was incubated at room temperature for 60 min before adding 25 μL ADP-Glo™ reagent. The plate was incubated for 40 min at room temperature. Subsequently, 50 μL of Kinase Detection Reagent was added, the plate was gently shaken for 1 min. and incubated away from light for 30-40 min. Finally, luminescence was measured using a BioTek Synergy HTX multi-mode reader (integration time=1 s). All data was normalized such that the luminescence produced by the lowest concentration treatment of each compound was set to 100% DYRK1A activity.

C57BL/6J mice = assay: Locomotion in open field chamber; format: in vivo; conditions: doses up to 30 mg/kg
Procedure: Animals. Female C57BL/6J mice used in the head twitch response and locomotion assays, and Sprague Dawley dams used to generate embryonic cultures were obtained from Jackson Laboratory (Sacramento, CA). Mice were housed in a temperature- and humidity-controlled room maintained on a 12 h light/dark cycle in groups of four to five (same sex). Animals weighed between 17 and 30 g at the time of the experiments. All experimental procedures involving rodents were approved by the UC Davis Institutional Animal Care and Use Committee (IACUC) and adhered to principles described in the National Institutes of Health Guide for the Care and Use of Laboratory Animals. The University of California, Davis is accredited by the Association for Assessment and Accreditation of Laboratory Animal Care International (AAALAC).
Head-Twitch Response and Locomotion. Mice (9-10 weeks old) were injected intraperitoneally with compounds dissolved in 10% Kolliphor® EL (Sigma) and 10% DMSO in 0.9% saline (injection volume 5 mL/kg) or vehicle, placed in an empty cage, and filmed for 10 min. Locomotion was quantified using ANYmaze Video Tracking System, version 7.07 (Stoelting Co.). […] The last 20 min of each video were scored by one trained observer blinded to the treatment conditions.

phospho-Tau = assay: Phospho-Tau assay using cultured rat cortical neurons (okadaic acid insult); format: cell-based; conditions: 30 nM okadaic acid; for Tau phosphorylated at Ser202/Thr205: 50 μM pretreatment; for Tau phosphorylated at Ser202/Thr205 / Tau phosphorylated at Ser396: rat cortical neurons; for Tau phosphorylated at Ser396 / hyperphosphorylation of Tau (pTau accumulation) induced by okadaic acid: pretreatment; for hyperphosphorylation of Tau (pTau accumulation) induced by okadaic acid: rat cortical cultures, FIG. 14 and 15B
Procedure: Phospho-Tau Assay Using Cultured Rat Cortical Neurons. Primary cortical cell cultures were prepared as described previously.^2 Briefly, pregnant Sprague Dawley dams were euthanized at embryonic day 18 (E18), and the cortices of the pups were harvested. Cells were plated on poly-d-lysine coated plates at 15,000 cells per well. Cultures were maintained at 37° C. under an atmosphere containing 5% CO2. Plating media consisted of 10% heat-inactivated fetal bovine serum (FBS; Fisher) 1% penicillin-streptomycin (Fisher), and 0.5 mM glutamine (Life Technologies) in Neurobasal (Fisher). After 16-24 h, media was exchanged for replacement media consisting of IX B27 supplement (Fisher), 1% penicillin-streptomycin, 0.5 mM glutamine, and 12.5 μM glutamate in Neurobasal. On DIV6 and DIV13, 50% of media was removed, and feeding media containing 1×B27 supplement, 1% penicillin-streptomycin, 0.5 mM glutamine in Neurobasal was added with an additional 20% volume added to account for evaporation. On DIV14, the volume of each well was adjusted to 180 μL. Next, 1000× solutions of compounds in DMSO were diluted 1:100 into Neurobasal and 20 μL of the resulting solutions was added to the appropriate wells (total dilution=1:1000, 0.1% DMSO). For wells that were not treated with compounds, DMSO was diluted 1:100 into Neurobasal and 20 μL of the resulting solution was added to the appropriate wells. All treatments were randomized. After 24 h, 20 μL was removed from each well. […] After 1 h, neurons were fixed by removing 80% of the media and replacing it with a volume of 4% aqueous paraformaldehyde (ThermoFisher) equal to 50% of the working volume of the well. Then, the cells were incubated at room temperature for 15 min before the fixative was aspirated and each well was washed twice with DPBS. Cells were permeabilized using 0.2% Triton X-100 (ThermoFisher) in DPBS for 15 min at room temperature without shaking. Plates were blocked with blocking buffer (2% bovine serum albumin and […] in DPBS) overnight at 4° C. Then, plates were incubated overnight at 4° C. with gentle shaking in antibody dilution buffer (ADB) (1% bovine serum albumin and […] in DBPS) containing a chicken anti-MAP2 antibody (1:10,000; EnCor, CPCA-MAP2), guinea pig anti-Tau antibody (1:1000; Synaptic Systems), mouse anti-phosphoTau (Ser202/Thr205) antibody (1:1000; Invitrogen), and rabbit anti-phosphoTau (Ser396) antibody (1:1000; Invitrogen). Plates were washed twice with DPBS and once with ADB before being incubated for 1 h at room temperature in ADB containing an anti-chicken IgY secondary antibody conjugated to Alexa Fluor™ Plus 800 (1:1000; Invitrogen), an anti-mouse IgG secondary antibody conjugated to Alexa Fluor™ Plus 680 (1:1000; Invitrogen), an anti-guinea pig IgG secondary antibody conjugated to Alexa Fluor™ 596 (1:1000; Invitrogen), and an anti-rabbit IgG secondary antibody conjugated to Alexa Fluor™ Plus 488 (1:1000; Invitrogen). Plates were washed three times with DBPS, and after the final wash, 100 μL of DPBS was added per well before imaging on a CellInsight™ CX7 High Content Analysis imager at 20× with 12 ROIs taken per well with no bias to location and no overlap of the ROIs. Images were analyzed using Cellnomics Scan software (version 6.6.2). The compartmental analysis assay was used to measure the average intensity of each channel per field and determine the reported intensity ratios.

COc1ccc2c(c1)N(CCN(C)C)/C(=C/C(C)=O)S2.O=C(O)/C=C/C(=O)O [HTW_B_14 fumarate, (Z)-1-(3-(2-(dimethylamino)ethyl)-5-methoxybenzo[d]thiazol-2(3H)-ylidene)propan-2-one Fumarate Salt (1:1)]
inhibition of DYRK1A activity (DYRK1A): able to inhibit DYRK1A activity | total distance traveled in open field chamber (C57BL/6J mice): do not significantly affect the total distance traveled | Tau phosphorylated at Ser202/Thr205 (phospho-Tau): not observed | Tau phosphorylated at Ser396 (phospho-Tau): no reduction

COc1ccc2c(c1)[nH]c1c(C)nccc12 [Harmine, harmine]
hyperphosphorylation of Tau (pTau accumulation) induced by okadaic acid (phospho-Tau): prevents pTau accumulation in cortical neurons

COc1ccc2c3ccnc(C)c3n(CCN(C)C)c2c1.O=C(O)/C=C/C(=O)O [HTW_A_8 fumarate, 2-(7-methoxy-1-methyl-9H-pyrido[3,4-b]indol-9-yl)-N,N-dimethylethan-1-amine Fumarate Salt (2:3)]
inhibition of DYRK1A activity (DYRK1A): able to inhibit DYRK1A activity | total distance traveled in open field chamber (C57BL/6J mice): do not significantly affect the total distance traveled | Tau phosphorylated at Ser202/Thr205 (phospho-Tau): can block an increase in Tau phosphorylated at Ser202/Thr205 | hyperphosphorylation of Tau (pTau accumulation) induced by okadaic acid (phospho-Tau): blocks hyperphosphorylation of Tau | Tau phosphorylated at Ser396 (phospho-Tau): no reduction
